In ChEMBL document CHEMBL1201862, “PubChem BioAssay data set” (2004):
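Five compound concentrations were applied to cells in 96-well plates for 48 hours; endpoints were derived by simple linear interpolation of the resulting dose-response curve. GI50 is the concentration that inhibits growth by half.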 Active and inactive are the calls of the source. Rule as the data show it: active = GI50 up to about 1.1 µM and inactive = higher.

Experiments:
Test in all cases: DTP human tumour cell line panel, 48 h
OVCAR-4 = test system: OVCAR-4
HCC 2998 = test system: HCC 2998
NCI-H226 = test system: NCI-H226
Malme-3M = test system: Malme-3M
SF-295 = test system: SF-295
EKVX = test system: EKVX
COLO 205 = test system: COLO 205
LOX IMVI = test system: LOX IMVI
Hs-578T = test system: Hs-578T
SNB-19 = test system: SNB-19
SK-MEL-2 = test system: SK-MEL-2
MCF7 = test system: MCF7
HT-29 = test system: HT-29
OVCAR-5 = test system: OVCAR-5
DU-145 = test system: DU-145
SK-MEL-28 = test system: SK-MEL-28
CCRF-CEM = test system: CCRF-CEM
K562 = test system: K562
NCI-H23 = test system: NCI-H23
OVCAR-8 = test system: OVCAR-8

**Q.** For `O=C1C2C3C4C1C1C2[C@H](OCc2ccccc2)C3C1[C@H]4OCc1ccccc1` (stereo not given in full), which GI50 (OVCAR-4) is on record?
**A.** 70.3 µM (inactive)

**Q.** What about the GI50 (HCC 2998) of the same compound?
**A.** 31.3 µM (inactive)

**Q.** What about the GI50 (NCI-H226) of the same compound?
**A.** 76.9 µM (inactive)

**Q.** What about the GI50 (Malme-3M) of the same compound?
**A.** 76 µM (inactive)

**Q.** And the GI50 (SF-295)?
**A.** > 100 µM (inactive)

**Q.** What about the GI50 (EKVX) of the same compound?
**A.** 27.6 µM (inactive)

**Q.** And the GI50 (COLO 205)?
**A.** 28.9 µM (inactive)

**Q.** What about the GI50 (LOX IMVI) of the same compound?
**A.** 40.4 µM (inactive)

**Q.** And the GI50 (Hs-578T)?
**A.** 20.5 µM (inactive)

**Q.** And the GI50 (SNB-19)?
**A.** 67.9 µM (inactive)

**Q.** What about the GI50 (SK-MEL-2) of the same compound?
**A.** 51.2 µM (inactive)

**Q.** And the GI50 (MCF7)?
**A.** > 100 µM (inactive)

**Q.** And the GI50 (HT-29)?
**A.** 15.2 µM (inactive)

**Q.** What about the GI50 (OVCAR-5) of the same compound?
**A.** 24.3 µM (inactive)

**Q.** And the GI50 (DU-145)?
**A.** > 100 µM (inactive)

**Q.** What about the GI50 (SK-MEL-28) of the same compound?
**A.** 40.2 µM (inactive)

**Q.** And the GI50 (CCRF-CEM)?
**A.** > 100 µM (inactive)

**Q.** What about the GI50 (K562) of the same compound?
**A.** > 100 µM (inactive)

**Q.** And the GI50 (NCI-H23)?
**A.** 48.8 µM (inactive)

**Q.** What about the GI50 (OVCAR-8) of the same compound?
**A.** > 100 µM (inactive)

**Q.** For `NC1CC2C3CCC2C1C3=O` (stereo not given), which GI50 (OVCAR-4) is on record?
**A.** > 100 µM (inactive)

**Q.** And the GI50 (HCC 2998)?
**A.** > 100 µM (inactive)

**Q.** What about the GI50 (NCI-H226) of the same compound?
**A.** > 100 µM (inactive)

**Q.** And the GI50 (Malme-3M)?
**A.** > 100 µM (inactive)

**Q.** And the GI50 (SF-295)?
**A.** > 100 µM (inactive)

**Q.** What about the GI50 (EKVX) of the same compound?
**A.** > 100 µM (inactive)

**Q.** What about the GI50 (COLO 205) of the same compound?
**A.** > 100 µM (inactive)

**Q.** What about the GI50 (LOX IMVI) of the same compound?
**A.** > 100 µM (inactive)

**Q.** And the GI50 (Hs-578T)?
**A.** > 100 µM (inactive)

**Q.** What about the GI50 (SNB-19) of the same compound?
**A.** > 100 µM (inactive)

**Q.** And the GI50 (SK-MEL-2)?
**A.** > 100 µM (inactive)

**Q.** What about the GI50 (MCF7) of the same compound?
**A.** > 100 µM (inactive)

**Q.** And the GI50 (HT-29)?
**A.** > 100 µM (inactive)

**Q.** And the GI50 (OVCAR-5)?
**A.** > 100 µM (inactive)

**Q.** What about the GI50 (DU-145) of the same compound?
**A.** > 100 µM (inactive)

**Q.** And the GI50 (SK-MEL-28)?
**A.** > 100 µM (inactive)

**Q.** What about the GI50 (CCRF-CEM) of the same compound?
**A.** > 100 µM (inactive)

**Q.** What about the GI50 (K562) of the same compound?
**A.** > 100 µM (inactive)

**Q.** What about the GI50 (NCI-H23) of the same compound?
**A.** > 100 µM (inactive)

**Q.** And the GI50 (OVCAR-8)?
**A.** > 100 µM (inactive)

**Q.** For `COc1cc(-c2cc(=O)c3c(O)c(OC)c(OC)c(OC)c3o2)cc(OC)c1OC` [GARDENIN], which GI50 (OVCAR-4) is on record?
**A.** > 100 µM (inactive)

**Q.** And the GI50 (HCC 2998)?
**A.** 22.5 µM (inactive)

**Q.** And the GI50 (NCI-H226)?
**A.** 13.7 µM (inactive)

**Q.** And the GI50 (Malme-3M)?
**A.** > 100 µM (inactive)

**Q.** And the GI50 (SF-295)?
**A.** 8.47 µM (inactive)

**Q.** What about the GI50 (EKVX) of the same compound?
**A.** 22.3 µM (inactive)

**Q.** And the GI50 (COLO 205)?
**A.** > 100 µM (inactive)

**Q.** And the GI50 (LOX IMVI)?
**A.** 6.31 µM (inactive)

**Q.** And the GI50 (Hs-578T)?
**A.** 3.15 µM (inactive)

**Q.** What about the GI50 (SNB-19) of the same compound?
**A.** 10.7 µM (inactive)

**Q.** And the GI50 (SK-MEL-2)?
**A.** > 55.6 µM (inactive)

**Q.** And the GI50 (MCF7)?
**A.** > 100 µM (inactive)

**Q.** And the GI50 (HT-29)?
**A.** > 100 µM (inactive)

**Q.** What about the GI50 (OVCAR-5) of the same compound?
**A.** > 68.9 µM (inactive)

**Q.** And the GI50 (DU-145)?
**A.** > 100 µM (inactive)

**Q.** And the GI50 (SK-MEL-28)?
**A.** > 100 µM (inactive)

**Q.** What about the GI50 (CCRF-CEM) of the same compound?
**A.** > 100 µM (inactive)

**Q.** And the GI50 (K562)?
**A.** > 100 µM (inactive)

**Q.** What about the GI50 (NCI-H23) of the same compound?
**A.** 15.1 µM (inactive)

**Q.** What about the GI50 (OVCAR-8) of the same compound?
**A.** 4.57 µM (inactive)

**Q.** Which GI50 (OVCAR-4) does the source give for `CC(C)=CCc1c2c(c3occ(-c4ccc(O)c(O)c4)c(=O)c3c1O)C=CC(C)(C)O2` [POMIFERIN] here?
**A.** 1.59 µM (inactive)

**Q.** What about the GI50 (HCC 2998) of the same compound?
**A.** 1.22 µM (inactive)

**Q.** And the GI50 (NCI-H226)?
**A.** 16.9 µM (inactive)

**Q.** And the GI50 (Malme-3M)?
**A.** 1.14 µM (inactive)

**Q.** What about the GI50 (SF-295) of the same compound?
**A.** 3.77 µM (inactive)

**Q.** And the GI50 (EKVX)?
**A.** 4.86 µM (inactive)

**Q.** And the GI50 (COLO 205)?
**A.** 1.78 µM (inactive)

**Q.** And the GI50 (LOX IMVI)?
**A.** 2.19 µM (inactive)

**Q.** And the GI50 (Hs-578T)?
**A.** 1.22 µM (inactive)

**Q.** What about the GI50 (SNB-19) of the same compound?
**A.** 1.96 µM (inactive)

**Q.** What about the GI50 (SK-MEL-2) of the same compound?
**A.** 2.6 µM (inactive)

**Q.** What about the GI50 (MCF7) of the same compound?
**A.** 1.34 µM (inactive)

**Q.** And the GI50 (HT-29)?
**A.** 1.84 µM (inactive)

**Q.** And the GI50 (OVCAR-5)?
**A.** 7.82 µM (inactive)

**Q.** What about the GI50 (DU-145) of the same compound?
**A.** 3.47 µM (inactive)

**Q.** And the GI50 (SK-MEL-28)?
**A.** 2.51 µM (inactive)

**Q.** And the GI50 (CCRF-CEM)?
**A.** 0.723 µM (active)

**Q.** And the GI50 (K562)?
**A.** 2.29 µM (inactive)

**Q.** What about the GI50 (NCI-H23) of the same compound?
**A.** 1.57 µM (inactive)

**Q.** And the GI50 (OVCAR-8)?
**A.** 2.81 µM (inactive)
